Here are results for five molecules from article PMC12212627, “Machine Learning-Based Virtual Screening of Antibacterial Agents against Methicillin-Susceptible and Resistant Staphylococcus aureus” (Journal of Chemical Information and Modeling, 2024).

Data set [1] relates to E. coli (ATCC 35218), TEM-1 β-lactamase producing strain. Description: Broth microdilution (CLSI): screening at 100 μM and MIC, E. coli. It counts as cell-based. Here is the method:
(§1) E. coli (ATCC n° […]) – a TEM-1 β-lactamase producing strain, S. aureus (ATCC n° 29213) – herein referred to as MSSA, MRSA (ATCC n° 43300), and two clinical strains of MRSA (n° 5749 and 6154) were used in the biological assays. The antibacterial activity and minimal inhibitory concentration (MIC) of the screened compounds were evaluated with the broth microdilution method in 96-well microplates, according to the Clinical and Laboratory Standards Institute (CLSI) protocol. Initially, compounds were evaluated in a screening assay to identify promising hits. The compounds were dissolved in dimethyl sulfoxide (DMSO) and then diluted in Mueller Hinton broth (MHB; Oxoid, Thermo Scientific, U.K.) to a concentration of 200 μM. After the addition of 100 μL to each well, the same volume of bacterial suspension containing 10^5 CFU/mL was added to each of the previous solutions, resulting in a final compound concentration of 100 μM. A viability control (bacterial suspension only), inhibition controls (MHB containing five times the MIC of penicillin G for MSSA, vancomycin for MRSA strains, and streptomycin for E. coli), a sterility control (medium only), and a vehicle control (DMSO 2% v/v) were included in each assay microplate. After 24 h of incubation at 37 °C, the microplates were visually inspected for inhibition of bacterial growth, and the absorbance at 600 nm of each well was read using a microplate reader spectrophotometer (VersaMax, Molecular Devices, CA). The percentage of growth inhibition was calculated as the percentage of growth reduction compared with the vehicle control. Wells showing no visual bacterial growth (no turbidity) were considered hits. The MIC of the promising compounds in the initial screening were tested as previously described, with a serial dilution of each compound (100–1.56 μM). All conditions were tested in triplicate from at least three independent assays.
(In general: Dilution methods test growth across graded concentrations, often in twofold steps.)

The next data set deals with MRSA (ATCC n° 43300). Description: Broth microdilution (CLSI): screening at 100 μM and MIC, MRSA reference strain. It counts as cell-based, Staphylococcus aureus. As to conditions: for MIC: broth microdilution, 24 h, 37 °C; for % of growth inhibition, MRSA (ATCC 43300): at the concentration given (MIC or 100 μM where MIC >100). Here is the method:
as §1

Data set [2] can be described thus: Cytotoxicity, colorimetric MTT assay. It counts as cell-based. As to conditions: African green monkey, Vero (ATCC CCL-81) cells, 72 h incubation. Here is the method:
As for the cytotoxic concentration of 50% (CC50) determination, the Vero (ATCC CCL-81) cell line was cultured in Eagle’s Minimum Essential Medium (MEM) (Cultilab, Brazil). The medium was supplemented with 5% fetal bovine serum (FBS) (Cultilab, Brazil), in addition to 100 IU/mL penicillin (Cellofarm, Brazil), 100 μg/mL streptomycin (Merck, Germany), and 0.25 μg/mL amphotericin B (Cultilab, Brazil). Cells were seeded in 96-well microplates (4.0 × 10^4 cells per well) and incubated at 37 °C and 5% CO2 atmosphere. After 24 h of incubation, 200 μL of fresh medium containing a serial dilution of the compounds (100–1.56 μM) was added to the plates. Serial dilutions of DMSO were used as vehicle controls. After 72 h of incubation under the same conditions, 100 μL of 3-(4,5-dimethylthiazol-2-yl)–2,5-diphenyltetrazolium bromide (MTT) in MEM (0.5 mg/mL) was added to each well. After 3 h of incubation with MTT (ThermoFischer Scientific), the medium was removed, and 100 μL of DMSO was added to each well to solubilize the formazan crystals. After a brief incubation under shaking for 20 min, the absorbance at 570 nm of each well was read using a spectrophotometer (VersaMax, Molecular Devices). The percentages of inhibition of cell viability were calculated by using the vehicle control. The cytotoxic concentration of 50% (CC50) is defined as the lowest concentration of a given compound that can reduce the viability of cultured cells by 50%. Posteriorly, the selectivity index (SI), that is, the ratio between the CC50 and MIC values of each active compound, was calculated. All conditions were tested in triplicate and at least two independent assays. The overall procedures applied in this work are illustrated in Figure .

Data set [3] has as its system clinical strain of MRSA n° 6154. Put plainly: Broth microdilution (CLSI): screening at 100 μM and MIC, MRSA clinical strain 6154. As to conditions: for % of growth inhibition, MRSA (6154): at the concentration given (MIC or 100 μM where MIC >100). The class given is cell-based, Staphylococcus aureus. Here is the method: as §1
The subject of data set [4] is clinical strain of MRSA n° 5749. Put plainly: Broth microdilution (CLSI): screening at 100 μM and MIC, MRSA clinical strain 5749. It counts as cell-based, Staphylococcus aureus. The conditions noted are these: for MIC / MIC, MRSA (5749): broth microdilution, 24 h, 37 °C; for % of growth inhibition, MRSA (5749): at the concentration given (MIC or 100 μM where MIC >100). Here is the method: as §1

Data set [5] deals with S. aureus (ATCC n° 29213), MSSA. Description: Broth microdilution (CLSI): screening at 100 μM and MIC, MSSA. It counts as cell-based, Staphylococcus aureus. As to conditions: for MIC: broth microdilution, 24 h, 37 °C; for % of growth inhibition, MSSA (ATCC 29123): at the concentration (MIC). Here is the method:
as §1

In another data set the test system is MSSA and MRSA strains. Put plainly: Broth microdilution, results summed up over MSSA and MRSA strains. As to conditions: Staphylococcus aureus; span over the strains evaluated; read-out: MIC values against MSSA and all MRSA strains. The class given is cell-based, Staphylococcus aureus. Here is the method: as §1
For data set [6] the following is noted: pharmacokinetic properties already determined; cited from earlier work.
[7] abbreviates: broth microdilution, 24 h, 37 °C.
[8] abbreviates: Staphylococcus aureus, ATCC 43300 / MRSA.
The mark [9] stands for this setting: Staphylococcus aureus, MRSA, broth microdilution, 24 h, 37 °C.
Where [10] appears, read: Staphylococcus aureus, ATCC 29123 / MSSA.

Converted amounts (≈) assume the structure as drawn.

As usually defined, the MIC is the smallest concentration in the dilution series that meets the test's criterion for growth inhibition. By CC50 is commonly meant the concentration giving 50% cytotoxicity. Regarding `CC(=O)O[C@@H]1[C@H](OC(C)=O)[C@H](C)O[C@H](n2cc(COC3=CC(=O)c4ccccc4C3=O)nn2)[C@H]1OC(C)=O` [Compound 1, 2-[1-(2,3,4-tri-O-acetyl-6-deoxy-β-L-galactopyranosyl)-1,2,3-triazol-4-(methyl)oxy]-1,4-naphtoquinone], the “MIC, E. coli (ATCC 35218)” value in data set [1] (setting [7]) was “−”. The MIC with MRSA (ATCC n° 43300) (setting [8]) is above 100 µM; in data set [3] (setting [9]), above 100 µM; in data set [4] (Staphylococcus aureus, MRSA), above 100 µM; in data set [5] (setting [10]) it was 100 µM (≈ 52.7 µg/mL); in the data set with MSSA and MRSA strains, at least 100 µM. The “% of growth inhibition, MRSA (ATCC 43300)” value in the data set on MRSA (ATCC n° 43300) came to 70.02%. The same molecule yielded a CC50 at 72 h in data set [2] of 33.8 ± 3.44 µM. In addition, in data set [3], the “% of growth inhibition, MRSA (6154)” value stood at 50.60%. Also, the “% of growth inhibition, MRSA (5749)” value in data set [4] is recorded as 41.76%. The “% of growth inhibition, MSSA (ATCC 29123)” value (from here on “% of growth inhibition, MSSA”) in data set [5] was 99.60%.

In the case of `C#CCOC1=CC(=O)c2ccccc2C1=O` [Compound 3, 2-[(prop-2-yn-1-yl)oxy]-1,4-naphtoquinone], in data set [1] (setting [7]), the “MIC, E. coli (ATCC 35218)” value was “−”. Further, the MIC against MRSA (ATCC n° 43300) (setting [8]) was 50 µM (≈ 10.6 µg/mL); in data set [3] (setting [9]), 50 µM (≈ 10.6 µg/mL); in data set [4] (Staphylococcus aureus, MRSA), 50 µM (≈ 10.6 µg/mL); in data set [5] (setting [10]) it was 50 µM (≈ 10.6 µg/mL); in the data set with MSSA and MRSA strains, 50 µM (≈ 10.6 µg/mL). Also, the “% of growth inhibition, MRSA (ATCC 43300)” value in the data set on MRSA (ATCC n° 43300) is on record as above 99.9%. In data set [2], the midpoint of cytotoxicity, the CC50 at 72 h, lay at 21.2 ± 8.89 µM. Besides, the “% of growth inhibition, MRSA (6154)” value in data set [3] is above 99.9%. In data set [4], the “% of growth inhibition, MRSA (5749)” value is reported as above 99.9%. Further, in data set [5], the “% of growth inhibition, MSSA” value was determined as 96.52%.

The inhibition is the relative decrease from the control value, in per cent. Turning to `Cc1ccc(OCC(N)COc2ccc(C)cc2)cc1` [Compound 4, 1,3-bis(4-methylphenoxy)propano-2-aminium chloride], the inhibition at 100 µM in data set [1] (Escherichia coli, ATCC35218, at 100 μM, read-out: inhibition in the initial screening, E. coli) worked out at 85.5%. In addition, the MIC in data set [1] (Escherichia coli, ATCC35218, broth microdilution, 24 h, 37 °C) was determined as 100 µM; against MRSA (ATCC n° 43300) (setting [8]), 100 µM; in data set [5] (setting [10]), 50 µM. Moreover, in data set [1] (at the concentration (MIC)), the “% of growth inhibition, E. coli (ATCC 35218)” value is 87.0%. For the same molecule, the “% of growth inhibition, MRSA (ATCC 43300)” value in the data set on MRSA (ATCC n° 43300) turned out to be 90.38%. This molecule displayed a CC50 at 72 h in data set [2] of 19 ± 6.1 µM. For the same molecule, the “MIC, MRSA (6154)” value in data set [3] (setting [7]) is listed as “−”. In data set [4], the “MIC, MRSA (5749)” value is “−”. In data set [5], the “% of growth inhibition, MSSA” value came to 97.80%.

Take `O=C(NCCCOCCCNC(=O)c1ccc(-c2ccc(Br)cc2)o1)c1ccc(-c2ccc(Br)cc2)o1` [Compound 6, N,N′-(oxybis(propane-3,1-diyl))-bis(5-(4-bromophenyl)furan-2-carboxamide)]: the “MIC, E. coli (ATCC 35218)” value in data set [1] (setting [7]) was “−”. For the same molecule, the inhibition at 50 µM with MRSA (ATCC n° 43300) (Staphylococcus aureus, ATCC 43300 / MRSA, at 50 μM, below the MIC, read-out: % of growth inhibition, MRSA (ATCC 43300), second line) was determined as 85.3%; in data set [3] (Staphylococcus aureus, MRSA, at 50 μM, below the MIC, read-out: % of growth inhibition, MRSA (6154), second line), 78.4%; in data set [4] (Staphylococcus aureus, MRSA, at 50 μM, below the MIC, read-out: % of growth inhibition, MRSA (5749), second line) it was 73.5%. The MIC was 100 µM (≈ 63 µg/mL) in the data set on MRSA (ATCC n° 43300) (setting [8]); 100 µM (≈ 63 µg/mL) in data set [3] (setting [9]); 100 µM (≈ 63 µg/mL) in data set [4] (Staphylococcus aureus, MRSA); 50 µM (≈ 31.5 µg/mL) in data set [5] (setting [10]); 50 to 100 µM (≈ 31.5 to 63 µg/mL) in the data set on MSSA and MRSA strains. Moreover, the “% of growth inhibition, MRSA (ATCC 43300)” value in the data set on MRSA (ATCC n° 43300) is above 99.9%. This molecule showed a CC50 at 72 h in data set [2] of 43.4 ± 4.66 µM. Moreover, the “% of growth inhibition, MRSA (6154)” value in data set [3] was above 99.9%. For the same molecule, in data set [4], the “% of growth inhibition, MRSA (5749)” value is recorded as above 99.9%. Also, the “% of growth inhibition, MSSA” value in data set [5] was above 99.9%.

`C=C/C(C)=C\C[C@]1(C)[C@H](C)C[C@H](O)[C@@]23C(=C[C@H](OC(=O)CCC)C[C@@H]12)[C@@H](OC(C)=O)O[C@H]3OC(C)=O` [Compound 5, [(1S,3R,5R,6aS,7R,8R,10S,10aS)-1,3-diacetyloxy-10-hydroxy-7,8-dimethyl-7-[(2Z)-3-methylpenta-2,4-dienyl]-1,3,5,6,6a,8,9,10-octahydrobenzo[d][2]benzofuran-5-yl] butanoate]: the “MIC, E. coli (ATCC 35218)” value in data set [1] (setting [7]) is given as “−”. In addition, the MIC is 100 µM (≈ 50.5 µg/mL) against MRSA (ATCC n° 43300) (setting [8]), 100 µM (≈ 50.5 µg/mL) in data set [3] (setting [9]) and 200 µM (≈ 101 µg/mL) in data set [5] (setting [10]). Besides, in the data set with MRSA (ATCC n° 43300), the “% of growth inhibition, MRSA (ATCC 43300)” value is above 99.9%. Moreover, in data set [6], the cell permeability result is “high”. The “stability in the gastrointestinal tract” value in data set [6] is listed as “degradation in the gastrointestinal tract”. Besides, the “% of growth inhibition, MRSA (6154)” value in data set [3] is recorded as above 99.9%. In addition, in data set [4], the “MIC, MRSA (5749)” value is on record as “−”. In data set [5] (Staphylococcus aureus, ATCC 29123 / MSSA, at 100 μM, below the MIC, read-out: % of growth inhibition, MSSA (ATCC 29123), second line), the inhibition at 100 µM is 27.4%. Further, the “% of growth inhibition, MSSA” value in data set [5] is on record as 96.43%.
